Experimental data as given in publication PMC8540097, “Novel Oleanolic Acid-Tryptamine and -Fluorotryptamine Amides: From Adaptogens to Agents Targeting In Vitro Cell Apoptosis” (Plants, 2021).
“And” between values parts separate entries of the source, which are not always exact repeats. Equal entries are not always repeated. Where two headings read alike, the source gives them in different places.

Tests used:
[1] = test system: G-361 (malignant melanoma); assay: Cytotoxicity screening test, G-361 cells (resazurin, 72 h); type: cell-based, human
Method: (§1) The screening human cancer cell lines used in this investigation were CEM (T-lymphoblastic leukemia), MCF7 (breast carcinoma), HeLa (cervical carcinoma) and G-361 (malignant melanoma) from the European Collection of Authenticated Cell Cultures (Salisbury, UK). Human foreskin fibroblasts (BJ) were used as reference cells, and they were a kind gift from Prof. Bartek from Danish Cancer Society Center (Copenhagen, Denmark). Cells were cultured in DMEM (Dulbecco’s Modified Eagle Medium) or in RPMI 1640 medium (CEM). Media used were supplemented with 10% fetal or 20% (CEM) bovine serum, L-glutamine (2 mM), and 1% penicillin-streptomycin mixture (all from Sigma, MO, USA). The cell lines were maintained under standard cell culture conditions at 37 °C and 5% CO2 in a humid environment. Cells were subcultured twice or three times a week using the standard trypsinization procedure. A description of the experimental procedure used in the cytotoxicity screening tests was already published. The cell viability was measured after 72 h using resazurin (Sigma, St. Louis, MO, USA).

MCF7 (breast carcinoma) = assay: Cytotoxicity screening test, MCF7 cells (resazurin, 72 h); type: cell-based, human
Method: as §1

[2] = test system: HeLa (cervical carcinoma); assay: Cytotoxicity screening test, HeLa cells (resazurin, 72 h); type: cell-based, human
Method: as §1

[3] = test system: CEM (T-lymphoblastic leukemia); assay: Cytotoxicity screening test, CEM cells (resazurin, 72 h); type: cell-based; settings: Homo sapiens, CCRF-CEM
Method: as §1

[4] = Cytotoxicity screening test, BJ reference fibroblasts (resazurin, 72 h); type: cell-based; settings: human, BJ foreskin fibroblasts (normal reference cells)
Method: as §1

[5] = test system: malignant melanoma cells (G-361); assay: Flow cytometric analysis of cell cycle and apoptosis, G-361 cells; type: cell-based, human; settings: G-361, 24 h
Method: (§2) A flow cytometric analysis, SDS–polyacrylamide gel electrophoresis and immunoblotting, and activities of caspase-3/7 were used to detect apoptosis in cervical carcinoma cells (HeLa) and malignant melanoma cells (G-361) treated for 24 h with 3a–3c (c = 3, 10 and 30 µM). The DNA content of HeLa or G-361 treated with 3a–3c for 24 h were analyzed using flow cytometry. Cells (HeLa and G-361), treated with the same concentrations of compounds for 24 h, were analyzed using electrophoresis and Western blotting, and the activity of caspase-3/7 by the standard methods. All experimental details of these methods were described in our recent paper.
3. Apoptosis in human cancer cells.
A detailed description of investigation of apoptosis in the HeLa and G-361 cancer cells is given in the main text of this paper. Because the results achieved with the G-361 cancer cells appeared to be less pronounced than those achieved with the HeLa cells, Figures S1A, S1B, S2 and S3 showing the results with G-361 cells are presented in the Supplementary material.
Figure S1A and S1B. Flow cytometric analysis of cell cycle (A) and apoptosis (B) of human malignant melanoma cells (G-361) after 24 h with 3a–3c (3, 10 and 30 µM). The bars 0 means control untreated cells, the bars 0+ means control with DMSO. Error bars are omitted for graph clarity. Experiment was repeated at least twice in duplicates.
Figure S1A. Flow cytometric analysis of cell cycle of G-361 cancer cells.
(1 picture or pasted object on this page, not shown here)

[6] = test system: caspase-3/7 in HeLa cells; assay: Activity of caspase-3/7 in HeLa cells; type: cell-based, human; settings: 24 h, c = 30 µM, versus control
Method: as §2
Figure 3 Activity of caspase-3/7. Activity of caspase-3/7 after 24 h treatment with 3a–3c (3, 10 and 30 µM) in HeLa cells. The bars 0 are control untreated cells, the bars 0+ are control cells with DMSO. The experiment was repeated at least twice in duplicates. All data were analyzed by statistical software. Significance is indicated with an asterisk (*) (p ˂ 0.05).

[7] = test system: cervical carcinoma cells (HeLa); assay: Flow cytometric analysis of cell cycle and apoptosis, HeLa cells; type: cell-based, human; settings: 24 h
Method: as §2
Figure 1 Flow cytometric analysis of cell cycle of HeLa cancer cells (A) and apoptosis (B). Flow cytometric analysis of cell cycle (A) and apoptosis (B) of human cervical carcinoma cells (HeLa) after 24 h with 3a–3c (3, 10 and 30 µM). The bars 0 means control untreated cells, the bars 0+ means control with DMSO. The experiment was repeated at least twice in triplicates. All data were analyzed by statistical software. Significance is indicated with an asterisk (*) (p ˂ 0.05).

[8] = Homo sapiens, G-361, 72 h, resazurin, read-out: Cytotoxicity IC50, G-361
[9] = Homo sapiens, MCF7, 72 h, resazurin, read-out: Cytotoxicity IC50, MCF7
[10] = Homo sapiens, HeLa, resazurin, read-out: Cytotoxicity IC50, HeLa
[11] = Homo sapiens, G-361, resazurin, read-out: Cytotoxicity IC50, G-361
[12] = Homo sapiens, MCF7, resazurin, read-out: Cytotoxicity IC50, MCF7
[13] = individual runs, Table S1, read-out: Cytotoxicity IC50, G361, single repeated screening runs (italics)
[14] = Homo sapiens, HeLa, individual runs, Table S1, read-out: Cytotoxicity IC50, HeLa, single repeated screening runs (italics)
[15] = individual runs, Table S1, read-out: Cytotoxicity IC50, HeLa, single repeated screening runs (italics)
[16] = individual runs, Table S1, read-out: Cytotoxicity IC50, MCF7, single repeated screening runs (italics)

Row | SMILES | IC50 [1, 8] | IC50 (MCF7 (breast carcinoma); [9]) | IC50 [2, 10] | IC50 [3] | IC50 at 72 h [4] | IC50 [1, 13] | IC50 [2, 14] | IC50 [2, 15] | Effect on cell cycle ([7]; c = 30 µM) | melting point | further results
1 | CC1(C)CC[C@]2(C(=O)O)CC[C@]3(C)C(=CC[C@@H]4[C@@]5(C)CC[C@H](O)C(C)(C)[C@@H]5CC[C@]43C)[C@@H]2C1 [Compound 1, (3β)-3-hydroxyolean-12-en-28-oic acid, reference compound] | > 50 µM | > 50 µM | > 50 µM | > 50 µM | > 50 µM | – | – | – | – | – | –
2 | CC(=O)O[C@H]1CC[C@]2(C)[C@H]3CC=C4[C@@H]5CC(C)(C)CC[C@]5(C(=O)O)CC[C@@]4(C)[C@]3(C)CC[C@H]2C1(C)C [Compound 2, (3β)-3-(acetyloxy)olean-12-en-28-oic acid] | – | – | > 50 µM | > 50 µM | > 50 µM | – | – | – | – | – | IC50 [1, 11]: > 50 µM; IC50 (MCF7 (breast carcinoma); [12]): > 50 µM
3 | CC(=O)O[C@H]1CC[C@]2(C)[C@H]3CC=C4[C@@H]5CC(C)(C)CC[C@]5(C(=O)NCCc5c[nH]c6ccccc56)CC[C@@]4(C)[C@]3(C)CC[C@H]2C1(C)C [Compound 3a, Tryptamine amide of (3β)-3-(acetyloxy)olean-12-en-28-oic acid] | 9 ± 0.4 µM | > 50 µM | 8.7 ± 0.4 µM | > 50 µM | > 50 µM | 9.2 µM | 8.4 µM | 9 µM | cell cycle arrest in the G2/M phase | – | IC50 ([1]; Homo sapiens, G-361, 72 h, individual runs, Table S1, read-out: Cytotoxicity IC50, G361, single repeated screening runs (italics)): 8.7 µM; Level of apoptotic cells in subG1 phase [5]: up to 7.7%; Effect on cell cycle ([5]; c = 10 µM): increase of accumulation of the S-phase cells; Induction of caspase-3/7 activity [6]: up to 4 times; Induction of apoptosis (apoptotic cells) ([7]; c = 30 µM): 4%
4 | CC(=O)O[C@H]1CC[C@]2(C)[C@H]3CC=C4[C@@H]5CC(C)(C)CC[C@]5(C(=O)NCCc5c[nH]c6cc(F)ccc56)CC[C@@]4(C)[C@]3(C)CC[C@H]2C1(C)C [Compound 3b] | 15.9 ± 6.6 µM | > 50 µM | 6.7 ± 1.4 µM | > 50 µM | > 50 µM | > 50 µM and 23 µM and 9.9 µM and 14.9 µM | – | 7.7 µM and 13.1 µM and 5.7 µM | increased the number of cells in the G2/M phase | 139 to 140 °C | Level of apoptotic cells in subG1 phase [5]: increased the level of apoptotic cells; Effect on cell cycle ([5]; c = 10 µM): increase of accumulation of the S-phase cells; Induction of caspase-3/7 activity [6]: up to 4.6 times; Induction of apoptosis (apoptotic cells) ([7]; c = 10 µM): up to 6.4%
5 | CC(=O)O[C@H]1CC[C@]2(C)[C@H]3CC=C4[C@@H]5CC(C)(C)CC[C@]5(C(=O)NCCc5c[nH]c6ccc(F)cc56)CC[C@@]4(C)[C@]3(C)CC[C@H]2C1(C)C [Compound 3c] | > 50 µM | > 50 µM | 12.2 ± 4.7 µM | > 50 µM | > 50 µM | – | – | 10.4 µM and 17.6 µM and 8.7 µM | increased the number of cells in the G2/M phase | 138 to 139 °C | Effect on cell cycle ([5]; c = 3 µM): increase of accumulation of the S-phase cells; Induction of apoptosis (apoptotic cells) ([7]; c = 30 µM): 2.7%
6 | CC1(C)CCC2(C(=O)NCCc3c[nH]c4ccccc34)CCC3(C)C(=CCC4C5(C)CCC(O)C(C)(C)C5CCC43C)C2C1 (stereo not drawn) [Compound 4a] | > 50 µM | > 50 µM | > 50 µM | > 50 µM | > 50 µM | > 50 µM (2×) and 19.7 µM | – | 20.4 µM and > 50 µM (2×) | – | – | –
7 | CC1(C)CCC2(C(=O)NCCc3c[nH]c4cc(F)ccc34)CCC3(C)C(=CCC4C5(C)CCC(O)C(C)(C)C5CCC43C)C2C1 (stereo not drawn) [Compound 4b] | > 50 µM | > 50 µM | 27.9 ± 0.8 µM | > 50 µM | > 50 µM | – | 27.3 µM | 28.5 µM and > 50 µM | – | 149 to 150 °C | IC50 (MCF7 (breast carcinoma); Homo sapiens, MCF7, 72 h, individual runs, Table S1, read-out: Cytotoxicity IC50, MCF7, single repeated screening runs (italics)): 44.5 µM; IC50 (MCF7 (breast carcinoma); [16]): > 50 µM
8 | CC1(C)CCC2(C(=O)NCCc3c[nH]c4ccc(F)cc34)CCC3(C)C(=CCC4C5(C)CCC(O)C(C)(C)C5CCC43C)C2C1 (stereo not drawn) [Compound 4c] | > 50 µM | 13.5 ± 3.3 µM | 20.3 ± 7.6 µM | > 50 µM | > 50 µM | – | 14.9 µM | 29 µM and 17.1 µM | – | 147 to 148 °C | IC50 (MCF7 (breast carcinoma); [16]): 31.8 µM and > 50 µM and 11.2 µM and 15.8 µM
9 | NCCc1c[nH]c2ccccc12 [tryptamine] | – | – | > 50 µM | > 50 µM | > 50 µM | – | – | – | – | – | IC50 [1, 11]: > 50 µM; IC50 (MCF7 (breast carcinoma); [12]): > 50 µM
